In PubChem BioAssay AID2060508 (Molecular Pharmacology Branch, DTP, NCI, 2025):

System: 454973-116-R2-J3-PDC spheroids, viability, % test/control
Test: Anticancer human tumor 454973-116-R2-J3-PDC patient-derived pancreatic carcinoma cell line growth inhibition [GQUAD]
Details: second compound 3.16 µM; first compound 0.0316 µM; active compounds read low; spheroids with HUVEC and MSC
Summary of the method: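 Tumor cells were grown as complex spheroids with HUVEC endothelial cells and mesenchymal stem cells as stroma. G-quadruplex stabilizers were combined with targeted agents over half-log dilutions from near the clinical Cmax, or from 10 microM.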
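Note: spheroids exposed to compounds for seven days; 100% = DMSO vehicle control viability.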

Row | Compound | viability, T/C
1 | O=C(NO)c1cnc(N2CCN(S(=O)(=O)c3ccc4ccccc4c3)CC2)nc1 + Cc1cnc(CNC(=O)c2c(=O)c3ccc(N4CCCN(C)CC4)nc3n3c2sc2ccccc23)cn1 | 67.9%

Same assay, conditions: second compound 3.16 µM; first compound 0.0999 µM; active compounds read low; spheroids with HUVEC and MSC

Row | Compound | viability, T/C
2 | Cc1[nH]c2ccccc2c1CCNCc1ccc(/C=C/C(=O)NO)cc1 + Cc1cnc(CNC(=O)c2c(=O)c3ccc(N4CCCN(C)CC4)nc3n3c2sc2ccccc23)cn1 | 21%

Same assay, conditions: second compound 3.16 µM; first compound 0.1 µM; active compounds read low; spheroids with HUVEC and MSC

Row | Compound | viability, T/C
3 | C#Cc1c(F)ccc2cc(O)cc(-c3ncc4c(N5CC6CCC(C5)N6)nc(OCC56CCCN5CC(F)C6)nc4c3F)c12 (stereo unspecified) + Cc1cnc(CNC(=O)c2c(=O)c3ccc(N4CCCN(C)CC4)nc3n3c2sc2ccccc23)cn1 | 22.6%
4 | C=CCn1c(=O)c2cnc(Nc3ccc(N4CCN(C)CC4)cc3)nc2n1-c1cccc(C(C)(C)O)n1 + Cc1cnc(CNC(=O)c2c(=O)c3ccc(N4CCCN(C)CC4)nc3n3c2sc2ccccc23)cn1 | 63.1%
5 | CC(C)(O)C1CCC(Nc2ccc3ncc(-c4cccc(C(F)(F)F)c4)n3n2)CC1 (stereo unspecified) + Cc1cnc(CNC(=O)c2c(=O)c3ccc(N4CCCN(C)CC4)nc3n3c2sc2ccccc23)cn1 | 65.2%
6 | O=C(NO)c1cnc(N2CCN(S(=O)(=O)c3ccc4ccccc4c3)CC2)nc1 + Cc1cnc(CNC(=O)c2c(=O)c3ccc(N4CCCN(C)CC4)nc3n3c2sc2ccccc23)cn1 | 60.9%

Same assay, conditions: second compound 3.16 µM; first compound 0.316 µM; active compounds read low; spheroids with HUVEC and MSC

Row | Compound | viability, T/C
7 | C#Cc1c(F)ccc2cc(O)cc(-c3ncc4c(N5CC6CCC(C5)N6)nc(OCC56CCCN5CC(F)C6)nc4c3F)c12 (stereo unspecified) + Cc1cnc(CNC(=O)c2c(=O)c3ccc(N4CCCN(C)CC4)nc3n3c2sc2ccccc23)cn1 | 19.3%
8 | C=CCn1c(=O)c2cnc(Nc3ccc(N4CCN(C)CC4)cc3)nc2n1-c1cccc(C(C)(C)O)n1 + Cc1cnc(CNC(=O)c2c(=O)c3ccc(N4CCCN(C)CC4)nc3n3c2sc2ccccc23)cn1 | 40.8%
9 | CC(C)(O)C1CCC(Nc2ccc3ncc(-c4cccc(C(F)(F)F)c4)n3n2)CC1 (stereo unspecified) + Cc1cnc(CNC(=O)c2c(=O)c3ccc(N4CCCN(C)CC4)nc3n3c2sc2ccccc23)cn1 | 63.9%
10 | Cc1[nH]c2ccccc2c1CCNCc1ccc(/C=C/C(=O)NO)cc1 + Cc1cnc(CNC(=O)c2c(=O)c3ccc(N4CCCN(C)CC4)nc3n3c2sc2ccccc23)cn1 | 0.16%
11 | O=C(NO)c1cnc(N2CCN(S(=O)(=O)c3ccc4ccccc4c3)CC2)nc1 + Cc1cnc(CNC(=O)c2c(=O)c3ccc(N4CCCN(C)CC4)nc3n3c2sc2ccccc23)cn1 | 13.3%

Same assay, conditions: second compound 3.16 µM; first compound 1 µM; active compounds read low; spheroids with HUVEC and MSC

Row | Compound | viability, T/C
12 | C#Cc1c(F)ccc2cc(O)cc(-c3ncc4c(N5CC6CCC(C5)N6)nc(OCC56CCCN5CC(F)C6)nc4c3F)c12 (stereo unspecified) + Cc1cnc(CNC(=O)c2c(=O)c3ccc(N4CCCN(C)CC4)nc3n3c2sc2ccccc23)cn1 | 12.6%
13 | C=CCn1c(=O)c2cnc(Nc3ccc(N4CCN(C)CC4)cc3)nc2n1-c1cccc(C(C)(C)O)n1 + Cc1cnc(CNC(=O)c2c(=O)c3ccc(N4CCCN(C)CC4)nc3n3c2sc2ccccc23)cn1 | 23.9%
14 | CC(C)(O)C1CCC(Nc2ccc3ncc(-c4cccc(C(F)(F)F)c4)n3n2)CC1 (stereo unspecified) + Cc1cnc(CNC(=O)c2c(=O)c3ccc(N4CCCN(C)CC4)nc3n3c2sc2ccccc23)cn1 | 59.8%
15 | O=C(NO)c1cnc(N2CCN(S(=O)(=O)c3ccc4ccccc4c3)CC2)nc1 + Cc1cnc(CNC(=O)c2c(=O)c3ccc(N4CCCN(C)CC4)nc3n3c2sc2ccccc23)cn1 | 0.48%

Same assay, conditions: second compound 3.16 µM; first compound 3.16 µM; active compounds read low; spheroids with HUVEC and MSC

Row | Compound | viability, T/C
16 | C#Cc1c(F)ccc2cc(O)cc(-c3ncc4c(N5CC6CCC(C5)N6)nc(OCC56CCCN5CC(F)C6)nc4c3F)c12 (stereo unspecified) + Cc1cnc(CNC(=O)c2c(=O)c3ccc(N4CCCN(C)CC4)nc3n3c2sc2ccccc23)cn1 | 9.16%
17 | C=CCn1c(=O)c2cnc(Nc3ccc(N4CCN(C)CC4)cc3)nc2n1-c1cccc(C(C)(C)O)n1 + Cc1cnc(CNC(=O)c2c(=O)c3ccc(N4CCCN(C)CC4)nc3n3c2sc2ccccc23)cn1 | 18.2%
18 | CC(C)(O)C1CCC(Nc2ccc3ncc(-c4cccc(C(F)(F)F)c4)n3n2)CC1 (stereo unspecified) + Cc1cnc(CNC(=O)c2c(=O)c3ccc(N4CCCN(C)CC4)nc3n3c2sc2ccccc23)cn1 | 21.3%
19 | O=C(NO)c1cnc(N2CCN(S(=O)(=O)c3ccc4ccccc4c3)CC2)nc1 + Cc1cnc(CNC(=O)c2c(=O)c3ccc(N4CCCN(C)CC4)nc3n3c2sc2ccccc23)cn1 | 0.95%

Same assay, conditions: second compound 3.16 µM; first compound 10 µM; active compounds read low; spheroids with HUVEC and MSC

Row | Compound | viability, T/C
20 | C#Cc1c(F)ccc2cc(O)cc(-c3ncc4c(N5CC6CCC(C5)N6)nc(OCC56CCCN5CC(F)C6)nc4c3F)c12 (stereo unspecified) + Cc1cnc(CNC(=O)c2c(=O)c3ccc(N4CCCN(C)CC4)nc3n3c2sc2ccccc23)cn1 | 4.35%
21 | C=CCn1c(=O)c2cnc(Nc3ccc(N4CCN(C)CC4)cc3)nc2n1-c1cccc(C(C)(C)O)n1 + Cc1cnc(CNC(=O)c2c(=O)c3ccc(N4CCCN(C)CC4)nc3n3c2sc2ccccc23)cn1 | 21.9%
22 | CC(C)(O)C1CCC(Nc2ccc3ncc(-c4cccc(C(F)(F)F)c4)n3n2)CC1 (stereo unspecified) + Cc1cnc(CNC(=O)c2c(=O)c3ccc(N4CCCN(C)CC4)nc3n3c2sc2ccccc23)cn1 | 25.9%
23 | O=C(NO)c1cnc(N2CCN(S(=O)(=O)c3ccc4ccccc4c3)CC2)nc1 + Cc1cnc(CNC(=O)c2c(=O)c3ccc(N4CCCN(C)CC4)nc3n3c2sc2ccccc23)cn1 | 0.53%

Same assay, conditions: second compound 10 µM; first compound 0.000999 µM; active compounds read low; spheroids with HUVEC and MSC

Row | Compound | viability, T/C
24 | Cc1[nH]c2ccccc2c1CCNCc1ccc(/C=C/C(=O)NO)cc1 + Cc1cnc(CNC(=O)c2c(=O)c3ccc(N4CCCN(C)CC4)nc3n3c2sc2ccccc23)cn1 | 0.26%

Same assay, conditions: second compound 10 µM; first compound 0.00316 µM; active compounds read low; spheroids with HUVEC and MSC

Row | Compound | viability, T/C
25 | Cc1[nH]c2ccccc2c1CCNCc1ccc(/C=C/C(=O)NO)cc1 + Cc1cnc(CNC(=O)c2c(=O)c3ccc(N4CCCN(C)CC4)nc3n3c2sc2ccccc23)cn1 | 19.2%

Same assay, conditions: second compound 10 µM; first compound 0.00999 µM; active compounds read low; spheroids with HUVEC and MSC

Row | Compound | viability, T/C
26 | Cc1[nH]c2ccccc2c1CCNCc1ccc(/C=C/C(=O)NO)cc1 + Cc1cnc(CNC(=O)c2c(=O)c3ccc(N4CCCN(C)CC4)nc3n3c2sc2ccccc23)cn1 | 43.2%
